{
  "source": "patent US20230255934A1",
  "about": "“NURR1 RECEPTOR MODULATORS AND USES THEREOF” (The Regents of the University of California, priority 2020, published 2023)",
  "key": {"Nurr1 LBD His516Ala": {"target": "T1, Nurr1 LBD His516Ala (Homo sapiens, UniProt P43354, H516A)", "T1 construct": "Mutants of LAP2 Nurr1 were prepared by GenScript starting from LAP2 Nurr1 vector; made in house", "T1 sequence (P43354 with tags, fused parts or gaps H516A)": "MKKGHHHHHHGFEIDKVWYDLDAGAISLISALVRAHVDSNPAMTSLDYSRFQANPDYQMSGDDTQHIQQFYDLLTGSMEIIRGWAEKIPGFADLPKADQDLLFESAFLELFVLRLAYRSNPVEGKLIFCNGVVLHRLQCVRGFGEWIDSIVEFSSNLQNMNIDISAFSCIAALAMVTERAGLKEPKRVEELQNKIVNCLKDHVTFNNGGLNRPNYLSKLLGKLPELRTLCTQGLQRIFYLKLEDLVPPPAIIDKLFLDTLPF", "assay": "MST binding to His516Ala mutant Nurr1 LBD", "settings": "for Amplitude (% change) / KD (% change): Table 1, H516 relative to WT; for Amplitude: Table 1, MST amplitude, H516; for Response Amplitude: Table 2, MST, His516Ala", "description": "The plasmid used for the expression of LAP2-tagged Nurr1 LBDs (LAP2 Nurr1) was prepared by GenScript (Piscataway, N.J.) as the product of gene synthesis and subcloning into pET-21a(+) Vector (GenScript) using the Ndel and Xhol sites within the MCS. Mutants of LAP2 Nurr1 were prepared by GenScript starting from LAP2 Nurr1 vector.\nConcentration-dependent association of the indoles with the Nurr1 LBD was carried out using microscale thermophoresis. Stock solutions (10 mM in DMSO) of each indole were serially diluted (200 μM indole, 0.5× dilutions down to 0.0061 μM) in MST buffer (25 mM HEPES, pH 7.4, 150 mM NaCl, and 0.1% Pluronic F127) containing 2% DMSO. The dilutions were carried out with 4% DMSO in the MST buffer for a total of 16 concentrations. Equivalent volumes and concentrations of the fluorescently labeled Nurr1 LBD in MST buffer were added to each ligand dilution in the series to reach a final concentration of 75 nM labeled protein. After incubating for 20 minutes, the samples were loaded into Monolith NT.115 Capillaries (Nanotemper).\nData were collected using the Monolith NT.115 System (Nanotemper), with settings for all samples at 40% excitation power and 40% MST power. The initial fluorescence was recorded for 3 sec and the thermophoresis fluorescence response was recorded for 20 sec. The data was inspected with Palmist software^5, and data points affected by initial fluorescence quenching or photobleaching were eliminated. The fluorescent response for each sample was normalized to the initial fluorescence using Palmist software to provide the values of thermophoresis (Fn). The resulting data was used to generate a plot of the change in thermophoresis (Fn-Fn0, where Fn=thermophoresis and Fn0=thermophoresis response in unbound range) versus concentration of the ligand. GraphPad Prism v. 8.3.0 software was used to fit the resulting data to a mass action equation for a specific binding with Hill slope, solving for KD: Fn-Fn0═Fmax·[L]^n/(KD^n+[L]^n), where Fmax=maximum amplitude of thermophoresis, [L]=concentration of the ligand at a specific point, KD=dissociation constant, nH=Hill Coefficient."}, "[1]": {"assay": "UV/VIS spectroscopy (A280) under MST assay conditions", "format": "physicochemical", "settings": "A280 linear over all concentrations, 0.1% Pluronic F127"}, "[2]": {"test_system": "Nurr1 target genes Th and Vmat2 in MN9D cells", "assay": "Target gene transcription assay (qPCR) in MN9D cells", "format": "cell-based, mouse", "settings": "for Expression of Th, fold-change relative to vehicle (DMSO) / Expression of Vmat2, fold-change relative to vehicle (DMSO): 10 μM, 24 h, normalized to Hprt", "description": "Target Gene Transcription Assays. These assays were carried out using standard protocols. MN9D TET-ON frozen cell stocks (P5) were thawed and grown for 60-72 h on poly-D-lysine pre-treated culture dishes (100 mm) in Dulbecco's Modified Eagle Medium/Nutrient Mixture F-12 (DMEM/F-12; Gibco) supplemented with 5% Tet System Approved FBS (Takara Bio USA) at 37° C., 5% C02 to ˜80% confluency. The resulting cells were then trypsinized with 0.25% Trypsin-EDTA (Gibko) and diluted to 2·10^5 cells/ml with fresh medium. The resulting cell suspension (0.8 mL) was added to 2× concentrated compound in the same medium containing 0.2% DMSO (0.8 mL) in an Eppendorf tube. The cell suspension with compound or vehicle (DMSO) was then seeded onto a 24-well plate pre-treated with Poly-D-Lysine at 0.8 mL per well. Assays were performed under conditions of basal Nurr1 expression, without induction of additional Nurr1 expression using doxycycline.\nAfter 24 h, total RNA was extracted the cells in each well using the Quick-RNA MiniPrep Plus Kit (Zymo Research), according to the manufacturer's instructions. The cDNA was then synthesized from 1000 ng of purified RNA using High-Capacity cDNA Reverse Transcription Kit (Applied Biosystems) and used as template. The qPCR as performed using iTaq Universal SYBR Green Supermix (BioRad) and CFX96 Real-Time Detection System machine (BioRad). Briefly, qPCR was performed in hard-shell 96-well PCR plates (BioRad) using cDNA corresponding to 8.75 ng of starting total RNA in a volume of 15 μl, containing 7.5 μl of SYBR Green Supermix, and 1 μL of 10 μM forward and reverse primers. Cycling parameters for qPCR included an initial denaturation at 95° C. for 3 min, followed by 40 cycles of 95° C. for 5 s and annealing at 56° C. for 30 s. The forward and reverse primers (Table 4) were ordered from IDT. Gene expression was quantified by the comparative2-ΔΔCt method, with the mouse housekeeping gene hypoxanthine-guanine phosphoribosyltransferase (Hprt) used as internal reference to determine the relative mRNA expression. Transcript levels for target genes were normalized to the housekeeping gene Hprt and fold change was compared to gene expression levels from vehicle (DMSO) only treated cells. GraphPad Prism 8 software was used for statistical analysis. Two-way ANOVA was applied for DMSO fold change vs compound. Results are from three independent experiments. Relative average expression±SD; *p<0.05, **p<0.01, ***p<0.001, ****p<0.0001 by ANOVA in comparison expression with 0 μM compound (DMSO only)."}, "[3]": {"assay": "Dynamic light scattering assay of nano-aggregation", "format": "physicochemical", "settings": "MST buffer with Pluronic F127", "description": "Measurements were made using a DynaPro MS/X (Wyatt Technology) with a 55 mW laser at 826.6 nm, using a detector angle of 90°. The laser power was 100%, and the acquisition time was 2 s. Histograms represent the average of three independent data sets, each with at least 10 measurements."}, "[4]": {"settings": "Table 1, Nurr1 variant H516, read-out: KD"}, "[5]": {"settings": "Table 2, His516Ala, read-out: Affinity (KD)"}},
  "note": "Entries after “also recorded” stand apart in the source; their conditions may differ. Read-outs that look alike come from different tables or passages of the source.",
  "data": [
    {"smiles": "Brc1ccc2[nH]ccc2c1", "note": "[5-bromoindole]", "values": [
      {"measurement": "Binding affinity for His516Ala mutant versus wildtype (in words)", "setting": "Nurr1 LBD His516Ala; MST", "value": "statistically unchanged"},
      {"measurement": "Amplitude (% change)", "setting": "Nurr1 LBD His516Ala", "value": "−43", "unit": "%"},
      {"measurement": "KD (% change)", "setting": "Nurr1 LBD His516Ala", "value": "+10%"},
      {"measurement": "Amplitude", "setting": "Nurr1 LBD His516Ala", "value": "41 + 5"},
      {"measurement": "Kd", "setting": "Nurr1 LBD His516Ala; [4]", "value": 11, "unit": "µM"},
      {"measurement": "Kd", "setting": "Nurr1 LBD His516Ala; [5]", "value": 7.3, "unit": "µM"},
      {"measurement": "Response Amplitude", "setting": "Nurr1 LBD His516Ala", "value": "33 + 5 (*)"},
      {"measurement": "Precipitation under MST assay conditions", "setting": "[1]", "value": "do not precipitate under the assay conditions"},
      {"measurement": "Effect on expression of Nurr1 target genes Th and Vmat2 (in words)", "setting": "[2]", "value": "upregulating the expression; also recorded: supports the transcription"},
      {"measurement": "Expression of Th, fold-change relative to vehicle (DMSO)", "setting": "[2]", "value": 2.2, "unit": "fold"},
      {"measurement": "Expression of Vmat2, fold-change relative to vehicle (DMSO)", "setting": "[2]", "value": 2.5, "unit": "fold"}
    ]},
    {"smiles": "Clc1ccc2[nH]ccc2c1", "note": "[5-chloroindole]", "values": [
      {"measurement": "Nano-aggregation properties", "setting": "[3]", "value": "minimal"},
      {"measurement": "Amplitude (% change)", "setting": "Nurr1 LBD His516Ala", "value": "−50", "unit": "%"},
      {"measurement": "KD (% change)", "setting": "Nurr1 LBD His516Ala", "value": "−36", "unit": "%"},
      {"measurement": "Amplitude", "setting": "Nurr1 LBD His516Ala", "value": "34 + 4"},
      {"measurement": "Kd", "setting": "Nurr1 LBD His516Ala; [4]", "value": 16, "unit": "µM"},
      {"measurement": "Kd", "setting": "Nurr1 LBD His516Ala; [5]", "value": 8.6, "unit": "µM"},
      {"measurement": "Response Amplitude", "setting": "Nurr1 LBD His516Ala", "value": "25 + 2 (****)"},
      {"measurement": "Precipitation under MST assay conditions", "setting": "[1]", "value": "do not precipitate under the assay conditions"},
      {"measurement": "Effect on expression of Nurr1 target genes Th and Vmat2 (in words)", "setting": "[2]", "value": "concentration dependent; also recorded: upregulating the expression; also recorded: supports the transcription; also recorded: superior to that of DHI"},
      {"measurement": "Expression of Th, fold-change relative to vehicle (DMSO)", "setting": "[2]", "value": 1.8, "unit": "fold"},
      {"measurement": "Expression of Vmat2, fold-change relative to vehicle (DMSO)", "setting": "[2]", "value": 2.4, "unit": "fold"}
    ]}
  ]
}
